Values of other authors as cited in patent US7612104B2, “Bicyclic aryl-sulfonic acid [1,3,4]-thiadiazol-2-yl-amides, processes for their preparation, pharmaceutical compositions and methods for their use” (Sanofi-Aventis, priority 2005, dated 2009).
Like-named read-outs stand apart in the source and are kept apart here.

Columns and labels:
PPARdelta [1] = settings: diabetic animal model; cited from earlier work
PPARdelta [2] = target: T1, PPARdelta (Macaca mulatta, UniProt I0FFS1); settings: obese, insulin resistant rhesus monkeys; cited from earlier work
T1 construct: host or cells: rhesus monkeys in vivo
T1 sequence (I0FFS1 1-441): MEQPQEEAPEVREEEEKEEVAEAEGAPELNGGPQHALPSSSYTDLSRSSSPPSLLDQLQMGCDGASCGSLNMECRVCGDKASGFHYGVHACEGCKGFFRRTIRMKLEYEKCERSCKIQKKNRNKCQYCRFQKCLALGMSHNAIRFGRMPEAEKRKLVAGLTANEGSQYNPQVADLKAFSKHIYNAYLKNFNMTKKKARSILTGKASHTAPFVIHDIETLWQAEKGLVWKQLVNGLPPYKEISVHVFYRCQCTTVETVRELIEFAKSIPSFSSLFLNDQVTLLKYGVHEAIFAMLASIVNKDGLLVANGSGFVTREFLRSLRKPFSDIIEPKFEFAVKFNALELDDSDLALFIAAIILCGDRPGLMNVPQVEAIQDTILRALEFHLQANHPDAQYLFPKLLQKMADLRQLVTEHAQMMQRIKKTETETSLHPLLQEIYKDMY

PPARdelta/PPARalpha [3] = settings: two weeks clinical trials in healthy volunteers; cited from earlier work
PPARdelta/PPARalpha [4] = settings: rhesus and cynomolgus monkeys; cited from earlier work

## CCCc1c(OCCCOc2ccc(OCC(=O)O)cc2)ccc(C(C)=O)c1O [Example L-165041]
PPARdelta [1]
  plasma cholesterol: raises plasma cholesterol

## Cc1cc(SCc2sc(-c3ccc(C(F)(F)F)cc3)nc2C)ccc1OCC(=O)O [GW501516]
PPARdelta [2]
  HDL-cholesterol: raises
  insulin levels: decreases
  plasma LDL-cholesterol: decreases
  triglycerides: decreases

## CCCc1c(OCCCSc2nnc(SCC(=O)O)s2)ccc(C(C)=O)c1O [YM-16638]
PPARdelta/PPARalpha [3]
  plasma lipids: acts in a similar manner
PPARdelta/PPARalpha [4]
  plasma lipids: significantly lowers
